According to the supplement of paper PMC10307832:

Columns and labels:
Assay in all cases: relative viability (nuclei count vs DMSO), 5 days (fraction); higher = more cells survive
EMC-BAC-2 = test system: EMC-BAC-2
Procedure, shortened: (§1)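 Lung cancer cell lines, seeded in 1536-well plates, were treated the following day by pin tool with a single drug or with five library-drug doses (not always all listed) in √10 steps on top of a fixed anchor-drug dose. Cells were fixed and nuclei stained in one step after 5 days, and nuclei were counted. Relative viability is the nuclei count for treated wells divided by that for vehicle wells, reported as medians of duplicate plates.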

NCI-H358 = test system: NCI-H358
Procedure, shortened: as §1

CAL-12T = test system: CAL-12T
Procedure, shortened: as §1

NCI-H1975 = test system: NCI-H1975
Procedure, shortened: as §1

NCI-H3122 = test system: NCI-H3122
Procedure, shortened: as §1

NCI-H1993 = test system: NCI-H1993
Procedure, shortened: as §1

HOP-62 = test system: HOP-62
Procedure, shortened: as §1

NCI-H1666 = test system: NCI-H1666
Procedure, shortened: as §1

HCC-78 = test system: HCC-78
Procedure, shortened: as §1

NCI-H322M = test system: NCI-H322M
Procedure, shortened: as §1

UMC-11 = test system: UMC-11
Procedure, shortened: as §1

LXF-289 = test system: LXF-289
Procedure, shortened: as §1

EPLC-272H = test system: EPLC-272H
Procedure, shortened: as §1

NCI-H2126 = test system: NCI-H2126
Procedure, shortened: as §1

NCI-H2085 = test system: NCI-H2085
Procedure, shortened: as §1

COR-L 105 = test system: COR-L 105
Procedure, shortened: as §1

NCI-H1755 = test system: NCI-H1755
Procedure, shortened: as §1

ChaGo-K-1 = test system: ChaGo-K-1
Procedure, shortened: as §1

ABC-1 = test system: ABC-1
Procedure, shortened: as §1

NCI-H2023 = test system: NCI-H2023
Procedure, shortened: as §1

NCI-H441 = test system: NCI-H441
Procedure, shortened: as §1

NCI-H1915 = test system: NCI-H1915
Procedure, shortened: as §1

HCC-15 = test system: HCC-15
Procedure, shortened: as §1

C[C@@H]1CN(CC(=O)Nc2ccc3c(c2)Cc2cccc(-c4cc(=O)cc(N5CCOCC5)o4)c2S3)C[C@H](C)O1 + CS(=O)(=O)N1CCN(Cc2cc3nc(-c4cccc5[nH]ncc45)nc(N4CCOCC4)c3s2)CC1 [Pictilisib] (partner 1 µM)
relative viability (EMC-BAC-2; first compound 0.04 µM): 0.559 | relative viability (EMC-BAC-2; first compound 0.1265 µM): 0.528 | relative viability (EMC-BAC-2; first compound 0.4 µM): 0.429 | relative viability (EMC-BAC-2; first compound 4 µM): 0.514 | relative viability (NCI-H358; first compound 0.04 µM): 0.355 | relative viability (NCI-H358; first compound 0.1265 µM): 0.343 | relative viability (NCI-H358; first compound 0.4 µM): 0.3 | relative viability (NCI-H358; first compound 4 µM): 0.247 | relative viability (CAL-12T; first compound 0.04 µM): 0.396 | relative viability (CAL-12T; first compound 0.1265 µM): 0.487 | relative viability (CAL-12T; first compound 0.4 µM): 0.396 | relative viability (CAL-12T; first compound 4 µM): 0.378 | relative viability (NCI-H1975; first compound 0.04 µM): 0.32 | relative viability (NCI-H1975; first compound 0.1265 µM): 0.263 | relative viability (NCI-H1975; first compound 0.4 µM): 0.279 | relative viability (NCI-H1975; first compound 4 µM): 0.298 | relative viability (NCI-H3122; first compound 0.04 µM): 0.656 | relative viability (NCI-H3122; first compound 0.1265 µM): 0.532 | relative viability (NCI-H3122; first compound 0.4 µM): 0.513 | relative viability (NCI-H3122; first compound 4 µM): 0.472 | relative viability (NCI-H1993; first compound 0.04 µM): 0.76 | relative viability (NCI-H1993; first compound 0.1265 µM): 0.927 | relative viability (NCI-H1993; first compound 0.4 µM): 0.994 | relative viability (NCI-H1993; first compound 4 µM): 0.912 | relative viability (HOP-62; first compound 0.04 µM): 0.359 | relative viability (HOP-62; first compound 0.1265 µM): 0.626 | relative viability (HOP-62; first compound 0.4 µM): 0.753 | relative viability (HOP-62; first compound 4 µM): 0.605 | relative viability (NCI-H1666; first compound 0.04 µM): 0.444 | relative viability (NCI-H1666; first compound 0.1265 µM): 0.298 | relative viability (NCI-H1666; first compound 0.4 µM): 0.439 | relative viability (NCI-H1666; first compound 4 µM): 0.29 | relative viability (HCC-78; first compound 0.04 µM): 0.208 | relative viability (HCC-78; first compound 0.1265 µM): 0.2 | relative viability (HCC-78; first compound 0.4 µM): 0.168 | relative viability (HCC-78; first compound 4 µM): 0.265 | relative viability (NCI-H322M; first compound 0.04 µM): 0.365 | relative viability (NCI-H322M; first compound 0.1265 µM): 0.506 | relative viability (NCI-H322M; first compound 0.4 µM): 0.452 | relative viability (NCI-H322M; first compound 4 µM): 0.565 | relative viability (UMC-11; first compound 0.04 µM): 0.769 | relative viability (UMC-11; first compound 0.1265 µM): 0.791 | relative viability (UMC-11; first compound 0.4 µM): 0.75 | relative viability (UMC-11; first compound 4 µM): 0.649 | relative viability (LXF-289; first compound 0.04 µM): 0.852 | relative viability (LXF-289; first compound 0.1265 µM): 0.789 | relative viability (LXF-289; first compound 0.4 µM): 0.78 | relative viability (LXF-289; first compound 4 µM): 0.792 | relative viability (EPLC-272H; first compound 0.04 µM): 0.272 | relative viability (EPLC-272H; first compound 0.1265 µM): 0.305 | relative viability (EPLC-272H; first compound 0.4 µM): 0.3 | relative viability (EPLC-272H; first compound 4 µM): 0.289 | relative viability (NCI-H2126; first compound 0.04 µM): 0.536 | relative viability (NCI-H2126; first compound 0.1265 µM): 0.49 | relative viability (NCI-H2126; first compound 0.4 µM): 0.459 | relative viability (NCI-H2126; first compound 4 µM): 0.487 | relative viability (NCI-H2085; first compound 0.04 µM): 0.476 | relative viability (NCI-H2085; first compound 0.1265 µM): 0.484 | relative viability (NCI-H2085; first compound 0.4 µM): 0.425 | relative viability (NCI-H2085; first compound 4 µM): 0.492 | relative viability (COR-L 105; first compound 0.04 µM): 0.344 | relative viability (COR-L 105; first compound 0.1265 µM): 0.402 | relative viability (COR-L 105; first compound 0.4 µM): 0.375 | relative viability (COR-L 105; first compound 4 µM): 0.414 | relative viability (NCI-H1755; first compound 0.04 µM): 0.381 | relative viability (NCI-H1755; first compound 0.1265 µM): 0.386 | relative viability (NCI-H1755; first compound 0.4 µM): 0.433 | relative viability (NCI-H1755; first compound 4 µM): 0.388 | relative viability (ChaGo-K-1; first compound 0.1265 µM): 0.633 | relative viability (ChaGo-K-1; first compound 0.4 µM): 0.577 | relative viability (ChaGo-K-1; first compound 4 µM): 0.686 | relative viability (ABC-1; first compound 0.1265 µM): 0.69 | relative viability (ABC-1; first compound 0.4 µM): 0.636 | relative viability (ABC-1; first compound 4 µM): 0.854 | relative viability (NCI-H2023; first compound 0.04 µM): 0.115 | relative viability (NCI-H2023; first compound 0.1265 µM): 0.262 | relative viability (NCI-H2023; first compound 0.4 µM): 0.197 | relative viability (NCI-H2023; first compound 4 µM): 0.198 | relative viability (NCI-H441; first compound 0.04 µM): 0.526 | relative viability (NCI-H441; first compound 0.1265 µM): 0.447 | relative viability (NCI-H441; first compound 0.4 µM): 0.43 | relative viability (NCI-H441; first compound 4 µM): 0.372 | relative viability (NCI-H1915; first compound 0.04 µM): 0.888 | relative viability (NCI-H1915; first compound 0.1265 µM): 0.961 | relative viability (NCI-H1915; first compound 0.4 µM): 0.97 | relative viability (NCI-H1915; first compound 4 µM): 0.774 | relative viability (HCC-15; first compound 0.04 µM): 0.815 | relative viability (HCC-15; first compound 0.1265 µM): 0.649 | relative viability (HCC-15; first compound 0.4 µM): 0.796 | relative viability (HCC-15; first compound 4 µM): 0.636
